Reference: patent publication US20230085307A1, “PYRIDAZINONE COMPOUND AND HERBICIDE” (NISSAN CHEMICAL CORPORATION, priority 2019, published 2023)

Columns and labels:
southern crabgrass [1] = test: Test Example 5: herbicidal effect by foliage application, plastic box (Table 20, symbol F); assay type: in vivo, southern crabgrass (Digitaria ciliaris); settings: foliage application, 320 g/ha, three weeks after application
Procedure, shortened: (§1)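 Post-emergence foliar test in sterilized diluvial soil. Compound applied as water-diluted emulsion at a predetermined rate to 14-day-old plants; evaluation at three weeks.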

velvetleaf [2] = test: Test Example 4: herbicidal effect by soil treatment (Table 19, symbol M); assay type: in vivo, velvetleaf (Abutilon theophrasti); settings: amount of applied herbicide 320 g/ha
Procedure, shortened: (§2)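 Emulsion of test compound, water-diluted to predetermined amount, sprayed on soil after sowing (seed depth ~1.5 cm, sterilized diluvial soil). Greenhouse, 25–30° C. Effect graded at three weeks post-spray.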

persian speedwell [3] = test: Test Example 5: herbicidal effect by foliage application, plastic box (Table 20, symbol R); assay type: in vivo, Persian speedwell (Veronica persica); settings: foliage application, 320 g/ha, three weeks after application
Procedure, shortened: as §1

barnyard grass [4] = test: Test Example 3: herbicidal effect by foliage application, Wagner pot (Table 18, symbol H); assay type: in vivo, barnyard grass (Echinochloa crus-galli)
Procedure, shortened: (§3)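 Plants were sown in alluvial soil held under 0.1–0.5 cm standing water and grown 14 days in a greenhouse at 25–30 °C. An emulsifiable formulation, water-diluted to the set dose, was then sprayed onto the foliage, and effects were scored three weeks later using previously defined criteria.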

windgrass [5] = test: Test Example 4: herbicidal effect by soil treatment (Table 19, symbol L); assay type: in vivo, windgrass (Apera spica-venti); settings: amount of applied herbicide 320 g/ha
Procedure, shortened: as §2

windgrass [6] = test: Test Example 5: herbicidal effect by foliage application, plastic box (Table 20, symbol L); assay type: in vivo, windgrass (Apera spica-venti); settings: foliage application, 320 g/ha, three weeks after application
Procedure, shortened: as §1

blackgrass [7] = test: Test Example 4: herbicidal effect by soil treatment (Table 19, symbol J); assay type: in vivo, blackgrass (Alopecurus myosuroides); settings: amount of applied herbicide 320 g/ha
Procedure, shortened: as §2

lambsquarters [8] = test: Test Example 5: herbicidal effect by foliage application, plastic box (Table 20, symbol O); assay type: in vivo, lambsquarters (Chenopodium album); settings: foliage application, 320 g/ha, three weeks after application
Procedure, shortened: as §1

velvetleaf [9] = test: Test Example 5: herbicidal effect by foliage application, plastic box (Table 20, symbol M); assay type: in vivo, velvetleaf (Abutilon theophrasti); settings: foliage application, 320 g/ha, three weeks after application
Procedure, shortened: as §1

rice flat sedge = test: Test Example 3: herbicidal effect by foliage application, Wagner pot (Table 18, symbol E); assay type: in vivo, rice flat sedge (Cyperus iria)
Procedure, shortened: as §3

late watergrass = test: Test Example 1: herbicidal activity, application before weed generation under submerged conditions (Table 16, symbol A); assay type: in vivo, late watergrass (Echinochloa oryzicola); settings: amount of applied herbicide 320 g/ha
Procedure, shortened: (§4)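 Emulsion formulation, water-diluted to set dose, was put onto the flooded surface (4 cm depth, alluvial soil) the same day weeds were sown and 2.5-leaf rice transplanted. After 3 weeks at 25-30 °C under glass, each species was rated 0 (≤5% kill) to 5 (≥90% kill).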

green foxtail [10] = test: Test Example 4: herbicidal effect by soil treatment (Table 19, symbol G); assay type: in vivo, green foxtail (Setaria viridis); settings: amount of applied herbicide 320 g/ha
Procedure, shortened: as §2

wild oat [11] = test: Test Example 4: herbicidal effect by soil treatment (Table 19, symbol I); assay type: in vivo, wild oat (Avena fatua); settings: amount of applied herbicide 320 g/ha
Procedure, shortened: as §2

barnyard grass [12] = test: Test Example 5: herbicidal effect by foliage application, plastic box (Table 20, symbol H); assay type: in vivo, barnyard grass (Echinochloa crus-galli); settings: foliage application, 320 g/ha, three weeks after application
Procedure, shortened: as §1

blackgrass [13] = test: Test Example 5: herbicidal effect by foliage application, plastic box (Table 20, symbol J); assay type: in vivo, blackgrass (Alopecurus myosuroides); settings: foliage application, 320 g/ha, three weeks after application
Procedure, shortened: as §1

redroot pigweed = test: Test Example 4: herbicidal effect by soil treatment (Table 19, symbol N); assay type: in vivo, redroot pigweed (Amaranthus retroflexus); settings: amount of applied herbicide 320 g/ha
Procedure, shortened: as §2

Italian ryegrass [14] = test: Test Example 5: herbicidal effect by foliage application, plastic box (Table 20, symbol K); assay type: in vivo, Italian ryegrass (Lolium multiflorum); settings: foliage application, 320 g/ha, three weeks after application
Procedure, shortened: as §1

green foxtail [15] = test: Test Example 5: herbicidal effect by foliage application, plastic box (Table 20, symbol G); assay type: in vivo, green foxtail (Setaria viridis); settings: foliage application, 320 g/ha, three weeks after application
Procedure, shortened: as §1

Chinese sprangletop = test: Test Example 3: herbicidal effect by foliage application, Wagner pot (Table 18, symbol D); assay type: in vivo, chinese sprangletop (Leptochloa chinensis)
Procedure, shortened: as §3

barnyard grass [16] = test: Test Example 4: herbicidal effect by soil treatment (Table 19, symbol H); assay type: in vivo, barnyard grass (Echinochloa crus-galli); settings: amount of applied herbicide 320 g/ha
Procedure, shortened: as §2

lambsquarters [17] = test: Test Example 4: herbicidal effect by soil treatment (Table 19, symbol O); assay type: in vivo, lambsquarters (Chenopodium album); settings: amount of applied herbicide 320 g/ha
Procedure, shortened: as §2

Japanese bulrush = test: Test Example 1: herbicidal activity, application before weed generation under submerged conditions (Table 16, symbol B); assay type: in vivo, Japanese bulrush (Schoenoplectus juncoides); settings: amount of applied herbicide 320 g/ha
Procedure, shortened: as §4

southern crabgrass [18] = test: Test Example 4: herbicidal effect by soil treatment (Table 19, symbol F); assay type: in vivo, southern crabgrass (Digitaria ciliaris); settings: amount of applied herbicide 320 g/ha
Procedure, shortened: as §2

wild oat [19] = test: Test Example 5: herbicidal effect by foliage application, plastic box (Table 20, symbol I); assay type: in vivo, wild oat (Avena fatua); settings: foliage application, 320 g/ha, three weeks after application
Procedure, shortened: as §1

chickweed = test: Test Example 4: herbicidal effect by soil treatment (Table 19, symbol P); assay type: in vivo, common chickweed (Stellaria media); settings: amount of applied herbicide 320 g/ha
Procedure, shortened: as §2

Italian ryegrass [20] = test: Test Example 4: herbicidal effect by soil treatment (Table 19, symbol K); assay type: in vivo, Italian ryegrass (Lolium multiflorum); settings: amount of applied herbicide 320 g/ha
Procedure, shortened: as §2

persian speedwell [21] = test: Test Example 4: herbicidal effect by soil treatment (Table 19, symbol R); assay type: in vivo, Persian speedwell (Veronica persica); settings: amount of applied herbicide 320 g/ha
Procedure, shortened: as §2

oval-leafed pondweed = test: Test Example 1: herbicidal activity, application before weed generation under submerged conditions (Table 16, symbol C); assay type: in vivo, oval-leafed pondweed (Monochoria vaginalis); settings: amount of applied herbicide 320 g/ha
Procedure, shortened: as §4

[22] = amount of applied herbicide 320 g/ha

Structure (SMILES) | herbicidal effect on southern crabgrass (F) (southern crabgrass [1]) | M: velvetleaf, herbicidal effect grade (velvetleaf [2]) | herbicidal effect on persian speedwell (R) (persian speedwell [3]) | L: windgrass, herbicidal effect grade (windgrass [5]) | herbicidal effect on windgrass (L) (windgrass [6]) | J: blackgrass, herbicidal effect grade (blackgrass [7]) | herbicidal effect on lambsquarters (O) (lambsquarters [8]) | herbicidal effect on velvetleaf (M) (velvetleaf [9]) | Herbicidal effect, A: late watergrass (late watergrass) | G: green foxtail, herbicidal effect grade (green foxtail [10]) | I: wild oat, herbicidal effect grade (wild oat [11]) | herbicidal effect on barnyard grass (H) (barnyard grass [12]) | herbicidal effect on blackgrass (J) (blackgrass [13]) | N: redroot pigweed, herbicidal effect grade (redroot pigweed) | herbicidal effect on Italian ryegrass (K) (Italian ryegrass [14]) | herbicidal effect on green foxtail (G) (green foxtail [15]) | H: barnyard grass, herbicidal effect grade (barnyard grass [16]) | O: lambsquarters, herbicidal effect grade (lambsquarters [17]) | Herbicidal effect, B: Japanese bulrush (Japanese bulrush) | F: southern crabgrass, herbicidal effect grade (southern crabgrass [18]) | also measured
CCOc1ccccc1-c1sc2cc(OC)c(Cl)cc2c1-c1c(O)c(C)nn(C)c1=O [5-072] | 5 (Herbicidal rate of 90% or more (almost completely withered)) | 1 (Herbicidal rate of 5% or more and less than 20%) | 5 (Herbicidal rate of 90% or more (almost completely withered)) | 0 (Herbicidal rate of 5% or less (almost no effect)) | 5 (Herbicidal rate of 90% or more (almost completely withered)) | 0 (Herbicidal rate of 5% or less (almost no effect)) | 4 (Herbicidal rate of 70% or more and less than 90%) | 5 (Herbicidal rate of 90% or more (almost completely withered)) | 0 (Herbicidal rate of 5% or less (almost no effect)) | 4 (Herbicidal rate of 70% or more and less than 90%) | 0 (Herbicidal rate of 5% or less (almost no effect)) | 5 (Herbicidal rate of 90% or more (almost completely withered)) | 3 (Herbicidal rate of 40% or more and less than 70%) | 3 (Herbicidal rate of 40% or more and less than 70%) | 0 (Herbicidal rate of 5% or less (almost no effect)) | 5 (Herbicidal rate of 90% or more (almost completely withered)) | 1 (Herbicidal rate of 5% or more and less than 20%) | 3 (Herbicidal rate of 40% or more and less than 70%) | 2 (Herbicidal rate of 20% or more and less than 40%) | 5 (Herbicidal rate of 90% or more (almost completely withered)) | herbicidal effect on barnyard grass (H) (barnyard grass [4]; 320 g/ha): 5 (Herbicidal rate of 90% or more (almost completely withered)); herbicidal effect on rice flat sedge (E) (rice flat sedge; 320 g/ha): 5 (Herbicidal rate of 90% or more (almost completely withered)); herbicidal effect on Chinese sprangletop (D) (Chinese sprangletop; 320 g/ha): 3 (Herbicidal rate of 40% or more and less than 70%); herbicidal effect on wild oat (I) (wild oat [19]): 2 (Herbicidal rate of 20% or more and less than 40%); P: chickweed, herbicidal effect grade (chickweed): 2 (Herbicidal rate of 20% or more and less than 40%); K: Italian ryegrass, herbicidal effect grade (Italian ryegrass [20]): 0 (Herbicidal rate of 5% or less (almost no effect)); R: persian speedwell, herbicidal effect grade (persian speedwell [21]): 3 (Herbicidal rate of 40% or more and less than 70%); Herbicidal effect, C: oval-leafed pondweed (oval-leafed pondweed): 0 (Herbicidal rate of 5% or less (almost no effect))
COc1ccccc1-c1oc2ccc(F)cc2c1-c1c(O)c(C)nn(C)c1=O [9-019] | 0 (Herbicidal rate of 5% or less (almost no effect)) | 0 (Herbicidal rate of 5% or less (almost no effect)) | 4 (Herbicidal rate of 70% or more and less than 90%) | 0 (Herbicidal rate of 5% or less (almost no effect)) | 0 (Herbicidal rate of 5% or less (almost no effect)) | 0 (Herbicidal rate of 5% or less (almost no effect)) | 0 (Herbicidal rate of 5% or less (almost no effect)) | 0 (Herbicidal rate of 5% or less (almost no effect)) | 3 (Herbicidal rate of 40% or more and less than 70%) | 0 (Herbicidal rate of 5% or less (almost no effect)) | 0 (Herbicidal rate of 5% or less (almost no effect)) | 0 (Herbicidal rate of 5% or less (almost no effect)) | 0 (Herbicidal rate of 5% or less (almost no effect)) | 2 (Herbicidal rate of 20% or more and less than 40%) | 0 (Herbicidal rate of 5% or less (almost no effect)) | 0 (Herbicidal rate of 5% or less (almost no effect)) | 0 (Herbicidal rate of 5% or less (almost no effect)) | 1 (Herbicidal rate of 5% or more and less than 20%) | 0 (Herbicidal rate of 5% or less (almost no effect)) | 0 (Herbicidal rate of 5% or less (almost no effect)) | Herbicidal effect on H (barnyard grass), foliage application (barnyard grass [4]; [22]): 4 (Herbicidal rate of 70% or more and less than 90%); Herbicidal effect on E (rice flat sedge), foliage application (rice flat sedge; [22]): 4 (Herbicidal rate of 70% or more and less than 90%); Herbicidal effect on D (Chinese sprangletop), foliage application (Chinese sprangletop; [22]): 4 (Herbicidal rate of 70% or more and less than 90%); herbicidal effect on wild oat (I) (wild oat [19]): 0 (Herbicidal rate of 5% or less (almost no effect)); P: chickweed, herbicidal effect grade (chickweed): 0 (Herbicidal rate of 5% or less (almost no effect)); K: Italian ryegrass, herbicidal effect grade (Italian ryegrass [20]): 1 (Herbicidal rate of 5% or more and less than 20%); R: persian speedwell, herbicidal effect grade (persian speedwell [21]): 0 (Herbicidal rate of 5% or less (almost no effect)); Herbicidal effect, C: oval-leafed pondweed (oval-leafed pondweed): 0 (Herbicidal rate of 5% or less (almost no effect))
